Tested on: bombesin-stimulated amylase secretion
Assay: Bombesin-stimulated pancreatic amylase secretion in the rat
Assay type: in vivo

D-Phe^6BN(6-13)methylester [I00008]
duration of inhibition of the secretion of amylase (5 nM of the analog, stimulated by 0.5 nM of bombesin, after bolus injection): 150 min
effect on bombesin-stimulated amylase secretion (result in words (Fig. 3)): potent antagonist

— patent publication EP0438519B1, “THERAPEUTIC PEPTIDES” (The Administrators of The Tulane Educational Fund, priority 1988, dated 1998)
